Where two headings read alike, the source gives them in different places.

Consider 4 compounds from paper PMC9769880, “Diverse Sensory Repertoire of Paralogous Chemoreceptors Tlp2, Tlp3, and Tlp4 in Campylobacter jejuni” (Microbiology Spectrum, 2022).

In assay [1] the test system is C. jejuni 11168-O tlp2, tlp3, and tlp4 mutant strains. Type of assay: cell-based. The settings on record: positive control.
For the next assay, the system named is Δtlp2,3,4 triple mutant. Type of assay: cell-based. The settings on record: compared with the other mutants.
Assay [2] addresses T1, Tlp2 (Campylobacter jejuni, UniProt Q0PBZ3). The assay can be described thus: biochemical. Type of assay: binding. The settings on record: read-out: Tlp2 Affinity. As to the method: (§1) His-tagged proteins (Tlp2, -3, and -4) were prepared as previously described ([11]) DNA segments encoding the periplasmic sensory domains (33 to 286 amino acids) of Tlp2 and (38 to 297 amino acids) of Tlp4 were amplified (see Table S7), ligated into pGEM-T Easy (Promega) and subcloned into pET-19b (Novagen) (see Table S6). Recombinant proteins were expressed in E. coli BL21(DE3) using 1 mM IPTG (isopropyl-β-D-thiogalactopyranoside) and purified using His-select-nickel chromatography as described previously ([8], [11]). The purity of the proteins was confirmed by SDS-PAGE and Western blot analysis with anti-His antibodies (Bio-Rad). Protein concentrations were determined using a NanoDrop spectrophotometer (Thermo Fisher).
(§2) Surface plasmon resonance (SPR) experiments were performed as described previously ([10], [11]) with the following modifications. Briefly, purified proteins were diluted to 0.15 μM in sodium acetate (pH 4.0) and immobilized onto an active flow cell of a CM5 sensor chip with a flow rate of 5 μL/min for 7 min of contact time using a standard amine coupling protocol. Immobilized protein levels for all three proteins ranged from 6028.3 to 9779.3 response units (RU) providing a minimum expected response maximum (RMax) between 20 and 50 RU for the small molecules tested. […] All ligands were prepared in PBS (pH 7.2) and serially diluted from 0.2 to 0.0125 mM. A 10-min dissociation period was allocated after the introduction of each analyte. SPR experiments were performed in single-cycle kinetics mode using the BIAcore S200 biosensor system (Cytiva) at 25°C in PBS (pH 7.2) at a flow rate of 30 μL/min. The equilibrium dissociation constant (KD) for each analyte was determined using BIAcore S200 Evaluation software with a report point 4 s after the injection stop to account for the bulk transfer of the small molecule against a large amount of immobilized protein (as shown in Fig. S5).

For assay [3], the target named is T2, Tlp4 (Campylobacter jejuni, UniProt Q0PBP3). The assay can be described thus: biochemical. Type of assay: binding. The settings on record: read-out: Tlp4 Affinity. As to the method:
as §1, §2

For the next assay, the target named is Tlp3^LBD D196A (Campylobacter jejuni, UniProt Q0P864, D196A). As to the kind of experiment: biochemical.
For assay [4], the target named is T1, Tlp2. The format is binding. The settings on record: yes/no binding. As to the method: (§3) Glycan (>400 monosaccharides or complex glycans) and small molecule arrays containing amino acids and salts were performed as described previously by Day et al. ([67]). Briefly, 1 μg of purified recombinant protein was complexed with anti-His antibody (Cell Signaling Technology) and rabbit anti-mouse/goat anti-rabbit Alexa 555-IgG (Thermo Scientific) at a molar ratio of 1:0.5:0.25 and then incubated on the array for […] in phosphate-buffered saline (PBS). The array slides were scanned at 488/520 nm and analyzed using InnoScan 1100 with MAPIX software. All arrays were performed in triplicate with a total of 12 data points for each glycan tested; the complete data set and MIRAGE (i.e., minimum information regarding a glycomics experiment) results are shown in Tables S3 and S8.
(§4) Table S8 - Supplementary glycan microarray document based on M IRAGE guidelines. D O I:
(§5) Classification Guidelines
(§6) 1. Sample: Glycan Binding Sample
(§7) Origin: Helicobacter pylori SS1; produced as a recombinant His - tagged protein in E.
(§8) The preparation of Tlp2,3, and 4 is explained in the Materials and Methods section:
(§9) Expression and purification of the periplasmic domain of Tlp2,3, and 4.
(§10) Sample Sample is a His Tagged protein containing only the periplasmic receptor domain of the modifications full length Tlp2,3, and 4transmembrane protein.
(§11) Please see Materials and Methods: Tlps 2/3/4 bind to a range of ligands, including […]
(§12) Proteins were complexed with mouse anti- his antibody, with secondary and tertiary AlexaFluor555 antibodies (rabbit anti-mouse, goat anti-rabbit) at a molar ratio of 4:2:1.
(§13) The protein/antibody complex was incubated on ice for 10 mins prior to placing on the Assay protocol array. Arrays were performed with 1 µg of complexed protein incubated on the array for 20 min. Arrays were then washed 3 times in Array PBS (PBS + 2mM MgCl2 + 2mM CaCl2) then dried by centrifugation for 3 min at 300 x g . Scanning was performed us ing an Innopsys InnoScan 1100AL and analyzed using Mapix (Innopsys). Yes/no binding was determined by six positive replicate spots in three replicate experiments. Positive […]
(§14) Glycan Glycans in this study are listed in Table S2 and is a published library in doi:
(§15) Glycans were prepared in one of two ways for printing:
(§16) Glycan 1. Glycans (with IDs in number/letter format; e.g. 1A, 4C, 7K) were sourced modifications commercially from Dextra Laboratories, Elicityl and Carbosythn and were made into glycoamines using the protocol published in Day et al 2009 (doi:
(§17) Glycan arrays: We only use glycan arrays as a yes/no binding tool. Due to this we look only at binding that is unambiguously above background vs lack of binding above background. Average background + 3x standard deviation of the background of 20 sets of 4 spots of DMF:DMSO only spots is applied to determine if binding observed is […]
(§18) Only spots with values equal to or greater than this value were considered as binding from data of any tested slide. These values are slide […]
(§19) Data Small molecule arrays: We only use amino acid arrays as a yes/no binding tool. Due interpretation to this we look only at binding that is unambiguously above background vs lack of binding above background. Average background + 3x standard deviation of the background of 6 spots of PBS + 2% glycerol only spots is applied to determine if […]
(§20) Only spots with values equal to or greater than this value were considered as binding from data of any tested slide. These values are slide dependent. […]

The target of assay [5] is T2, Tlp4. The format is binding. The settings on record: yes/no binding. On the procedure: as §3, §4, §5, §6, §7, §8, §9, §10, §11, §12, §13, §14, §15, §16, §17, §18, §19, §20
Assay [6] concerns the target T3, Tlp3 (Campylobacter jejuni, UniProt Q0P864). The assay can be described thus: Glycan/small molecule arrays with Tlp3. The settings on record: yes/no binding. On the procedure: as §3, §4, §5, §6, §7, §8, §9, §10, §11, §12, §13, §14, §15, §16, §17, §18, §19, §20
Assay [7] addresses T3, Tlp3. The assay can be described thus: biochemical. Type of assay: binding. On the procedure:
as §1, with “The purity of the proteins was confirmed by SDS-PAGE and Western blot analysis with anti-His antibodies (Bio-Rad).” left out
Surface plasmon resonance (SPR) experiments were performed as described previously ([10], [11]) with the following modifications. […] All ligands were prepared in PBS (pH 7.2) and serially diluted from 0.2 to 0.0125 mM. A 10-min dissociation period was allocated after the introduction of each analyte. SPR experiments were performed in single-cycle kinetics mode using the BIAcore S200 biosensor system (Cytiva) at 25°C in PBS (pH 7.2) at a flow rate of 30 μL/min. The equilibrium dissociation constant (KD) for each analyte was determined using BIAcore S200 Evaluation software with a report point 4 s after the injection stop to account for the bulk transfer of the small molecule against a large amount of immobilized protein (as shown in Fig. S5).

In the next assay the target is Tlp3^LBD D170A (Campylobacter jejuni, UniProt Q0P864). As to the kind of experiment: biochemical.
Another assay has as its target Tlp3^LBD W151A (Campylobacter jejuni, UniProt Q0P864, W151A). The assay can be described thus: biochemical.
The target of a further assay is Tlp3^LBD K149A (Campylobacter jejuni, UniProt Q0P864, K149A). As to the kind of experiment: biochemical.
The next assay addresses Tlp3^LBD D169A (Campylobacter jejuni, UniProt Q0P864, D169A). As to the kind of experiment: biochemical.
A further assay relates to WT Tlp3^LBD. The assay can be described thus: SPR competition assay (A-B-A inject). The format is binding, Campylobacter jejuni. The settings on record: 15 seconds after injection-B; glucose 300 µM, fucose 300 μM, malic acid 200 μM. As to the method:
. Competition A-B-A analyses determine the specificity of the potential ligand-binding site preferences of WT Tlp3^LBD. The bound protein is saturated with the first analyte (A), followed by the introduction of a second analyte (B); the assay is designed to show whether a cumulative response is observed after the second analyte (B) is added. A cumulative response indicates two independent binding sites, whereas the lack of a cumulative response indicates a single site where ligands compete for binding, i.e., when analyte A occupies a ligand binding site, analyte B cannot bind. […] All response data were normalized to a 100-Da molecular weight for each analyte, allowing direct comparison of the responses. Both actual RU values and theoretical values are recorded for comparison.
Figure S6. […] A) Injections are […]
at 300 μM for 60 seconds). Final responses units (RU) of injections are recorded (indicated by dashed vertical […]
81 at 15 s econds after injection- B and l fu cose […]
and fucose were compet ed was 4.4 RU ± 0.46. As this value sits be low 5 RU, it indicates direct competition for […]
Final respons es units (RU) of injections ar e re cor ded (indicated […]
As this value sits between
5.07- 13.5 RU, it indicates direct competition for the same site with glucos e replacing some of the bound malic acid during the 60 second injection- B.

Assay [8] addresses T3, Tlp3. As to the kind of experiment: STD NMR spectroscopy of arginine in complex with Tlp3. Type of assay: binding. The settings on record: 283K, 600.13 MHz; H3/H3′ and H5/H5′. On the procedure:
STD NMR experiments were performed as previously described in ([10]). […] A control sample was prepared in an identical manner without the addition of Tlp3. All NMR experiments were performed using 3-mm NMR tubes on a Bruker Avance 600 MHz spectrometer equipped with a 5-mm TXI probe with triple-axis gradients at 283K without sample spinning. ^1H NMR spectra were acquired with 32 scans and a 2-s relaxation delay over a spectral width of 6,000 Hz. Solvent suppression of the residual HDO peak was achieved by using a continuous low-power presaturation pulse during the relaxation delay. For all STD NMR experiments, the protein was saturated at −0.5 ppm in the aliphatic region of the spectrum and off-resonance at 33 ppm with a cascade of 40 selective Gaussian-shaped pulses of 50-ms duration (50 dB), which correlates to a strength of 190 Hz. A 100-μs delay between each soft pulse was applied, resulting in a total saturation time of ~2 s 2 K scans were acquired per sample. Data were obtained with interspersed acquisition of pseudo-two-dimensional on-resonance and off-resonance spectra in order to minimize the effects of temperature and magnet instability. On- and off-resonance spectra were processed separately, and the final STD NMR spectrum was obtained by subtracting the individual on- and off-resonance spectra, resulting in low-subtraction artifacts.

Assay [9] deals with Tlp3. Type of assay: cell-based, C. jejuni 11168-O. On the procedure:
The biological relevance of the binding specificities of the Tlp2,3,4 cluster was assessed by examining chemotactic responses of C. jejuni 11168-O tlp2, tlp3, and tlp4 wild-type (WT) and mutant strains using a nutrient-depleted chemotaxis assay. All ligands, with the exception of lysine and cysteine, interacted with Tlp2 and Tlp4 as attractants (Table 1), showing an ~1- to ~2-log decrease (P < 0.05) in migration toward the ligand compared to the WT strain.
Chemotaxis assays—the nutrient-depleted chemotaxis assay and the modified hard agar plug assay (tHAP)—were performed as previously described ([11], [34]). The chemotactic responses of all isogenic strains were compared to that of the C. jejuni 11168-O wild-type strain to distinguish between chemoattractants and chemorepellents. For the nutrient-depleted chemotaxis and modified hard agar plug (tHAP) assays, all differences were calculated as changes on a log10 scale. Controls were provided by using nonmotile (C. jejuni 81116 flaAB) and nonchemotactic (C. jejuni NCTC 11168 cheY) mutants ([69]) and mucin as negative and positive controls ([10]).

Setting [10] is: SPR KD, mean ± SD, NB = no binding.

T2 sequence (Q0PBP3 entry or part of it): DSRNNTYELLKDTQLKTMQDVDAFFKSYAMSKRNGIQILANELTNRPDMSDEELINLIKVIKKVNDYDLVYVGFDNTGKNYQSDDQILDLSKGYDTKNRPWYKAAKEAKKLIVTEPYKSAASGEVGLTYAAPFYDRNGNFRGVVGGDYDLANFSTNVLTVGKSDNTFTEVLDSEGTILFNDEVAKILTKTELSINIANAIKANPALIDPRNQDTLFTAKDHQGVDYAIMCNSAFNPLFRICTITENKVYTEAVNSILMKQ
T1 sequence (Q0PBZ3 entry or part of it): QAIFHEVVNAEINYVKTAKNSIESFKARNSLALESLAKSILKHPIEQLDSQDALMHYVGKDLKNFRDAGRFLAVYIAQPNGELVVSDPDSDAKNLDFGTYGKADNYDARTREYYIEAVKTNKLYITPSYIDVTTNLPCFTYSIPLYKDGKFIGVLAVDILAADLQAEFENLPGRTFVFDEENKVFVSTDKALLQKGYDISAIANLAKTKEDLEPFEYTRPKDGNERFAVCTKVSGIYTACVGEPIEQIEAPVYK
T3 sequence (Q0P864 entry or part of it): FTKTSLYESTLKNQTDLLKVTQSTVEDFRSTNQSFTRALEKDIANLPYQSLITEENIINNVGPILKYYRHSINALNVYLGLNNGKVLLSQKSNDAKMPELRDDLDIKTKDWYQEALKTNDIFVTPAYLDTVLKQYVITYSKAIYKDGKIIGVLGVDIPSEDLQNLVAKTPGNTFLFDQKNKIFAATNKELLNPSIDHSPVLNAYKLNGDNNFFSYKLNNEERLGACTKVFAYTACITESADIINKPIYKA
Tlp3^LBD W151A, sequence (Q0P864 41-290 W151A): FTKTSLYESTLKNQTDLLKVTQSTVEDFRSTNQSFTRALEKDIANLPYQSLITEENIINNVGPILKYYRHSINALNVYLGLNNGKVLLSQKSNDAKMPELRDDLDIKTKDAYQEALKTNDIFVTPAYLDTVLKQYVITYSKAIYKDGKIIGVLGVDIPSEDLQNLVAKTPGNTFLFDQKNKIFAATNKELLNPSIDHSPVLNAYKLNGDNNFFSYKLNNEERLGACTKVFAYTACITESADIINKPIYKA
Tlp3^LBD K149A, sequence (Q0P864 41-290 K149A): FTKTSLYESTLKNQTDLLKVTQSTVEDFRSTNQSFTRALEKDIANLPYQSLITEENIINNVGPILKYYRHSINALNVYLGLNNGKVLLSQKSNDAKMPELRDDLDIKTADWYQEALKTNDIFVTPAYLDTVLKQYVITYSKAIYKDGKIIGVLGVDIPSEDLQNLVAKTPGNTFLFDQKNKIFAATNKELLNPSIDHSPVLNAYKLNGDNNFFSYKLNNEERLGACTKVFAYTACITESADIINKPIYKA
Tlp3^LBD D196A, sequence (Q0P864 41-290 D196A): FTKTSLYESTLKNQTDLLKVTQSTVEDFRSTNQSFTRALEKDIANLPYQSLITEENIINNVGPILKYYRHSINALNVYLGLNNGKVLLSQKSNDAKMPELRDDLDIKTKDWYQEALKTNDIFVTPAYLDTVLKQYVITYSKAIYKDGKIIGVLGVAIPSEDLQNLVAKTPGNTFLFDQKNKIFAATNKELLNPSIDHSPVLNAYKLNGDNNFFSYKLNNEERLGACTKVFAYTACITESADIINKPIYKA
Tlp3^LBD D170A, sequence (Q0P864 41-290 T170A): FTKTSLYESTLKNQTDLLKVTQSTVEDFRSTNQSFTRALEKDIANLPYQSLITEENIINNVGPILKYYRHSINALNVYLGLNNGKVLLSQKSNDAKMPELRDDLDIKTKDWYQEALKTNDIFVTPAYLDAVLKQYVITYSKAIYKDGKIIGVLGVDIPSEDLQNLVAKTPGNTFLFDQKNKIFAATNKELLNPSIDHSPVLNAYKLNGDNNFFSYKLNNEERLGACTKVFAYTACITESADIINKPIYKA
Tlp3^LBD D169A, sequence (Q0P864 41-290 D169A): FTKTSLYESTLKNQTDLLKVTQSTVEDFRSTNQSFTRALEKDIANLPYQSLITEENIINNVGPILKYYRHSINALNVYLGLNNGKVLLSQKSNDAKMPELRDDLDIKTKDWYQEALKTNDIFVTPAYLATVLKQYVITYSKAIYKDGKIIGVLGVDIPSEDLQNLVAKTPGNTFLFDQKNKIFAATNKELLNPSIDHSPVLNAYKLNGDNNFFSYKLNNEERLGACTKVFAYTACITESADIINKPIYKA

Regarding mucin, the “migration toward control ligand in mutants” value in assay [1] is on record as “not affected”.

As for `c1ncc2nc[nH]c2n1` [Purine], the “migration toward ligand, Δtlp2,3,4 triple mutant” value with Δtlp2,3,4 triple mutant is “greatest reduction in migration”. Moreover, the Kd at Tlp2 [2] (setting [10]) worked out at 5.4 ± 1.1 µM; at Tlp4 [3] (setting [10]), 1.2 ± 0.7 µM; at Tlp3^LBD D196A it was 35.8 ± 1.5 µM; on Tlp3 [7] it was 37.2 ± 17.4 µM; on Tlp3^LBD D170A, 20.6 ± 4 µM; at Tlp3^LBD W151A it was 36.1 ± 15.7 µM. Also, the Kd on Tlp3^LBD K149A amounted to 41.9 ± 24 µM; at Tlp3^LBD D169A it was 15.7 ± 6.6 µM. The “binding to Tlp2 on glycan/small molecule array” value on Tlp2 [4] was “bound”. In addition, the “binding to Tlp4 on glycan/small molecule array” value at Tlp4 [5] is “bound”. Besides, the “binding to Tlp3 on glycan/small molecule array” value on Tlp3 [6] was “bind specifically”.

Regarding `OC[C@H]1OC(O)[C@H](O)[C@@H](O)[C@@H]1O` (some centres unmarked) [Glucose], in the assay with WT Tlp3^LBD, the “SPR response of single analyte” value came to 5.07 RU. The figures for the Kd on Tlp2 [2] (setting [10]) and at Tlp4 [3] (setting [10]) were 18.1 ± 2.2 µM and 18.3 ± 1.1 µM, respectively. Besides, the “binding to Tlp2 on glycan/small molecule array” value on Tlp2 [4] is reported as “interacted”. In addition, the “binding to Tlp4 on glycan/small molecule array” value on Tlp4 [5] was “interacted”. Moreover, the “binding to Tlp3 on glycan/small molecule array” value on Tlp3 [6] was “interacted”.

`N=C(N)NCCC[C@H](N)C(=O)O` [Arginine]: on Tlp3 [8], the “saturation transfer (STD NMR)” value is listed as “Strong saturation transfer”. For the same compound, the Kd on Tlp2 [2] and at Tlp4 [3] was over 200 µM in each case. Moreover, the “Tlp3 CR (chemoresponse)” value in the assay with Tlp3 [9] was “R”.
